One assay deals with T1, Human recombinant MMP-1 (Homo sapiens, UniProt P03956).
T1 construct: made in house; host or cells: MMP-1-transfected HT-1080 cells (spent media)
T1 sequence (P03956 100-469): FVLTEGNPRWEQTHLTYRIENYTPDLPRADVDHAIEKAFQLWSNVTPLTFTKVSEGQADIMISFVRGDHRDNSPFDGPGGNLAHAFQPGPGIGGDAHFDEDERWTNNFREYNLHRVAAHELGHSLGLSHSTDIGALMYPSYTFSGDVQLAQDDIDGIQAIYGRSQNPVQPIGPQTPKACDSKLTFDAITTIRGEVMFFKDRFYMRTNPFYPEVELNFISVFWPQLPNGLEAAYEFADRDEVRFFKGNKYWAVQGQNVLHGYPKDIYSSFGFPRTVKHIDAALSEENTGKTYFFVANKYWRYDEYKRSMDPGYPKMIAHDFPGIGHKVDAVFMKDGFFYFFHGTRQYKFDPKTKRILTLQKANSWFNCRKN
Briefly: In vitro MMP inhibition analysis (fluorogenic peptide substrate cleavage), Ki. The class given is biochemical. As for the experimental part:
(§1) Several compounds and salts were analyzed in an in vitro assay to determine their ability to inhibit the MMP cleavage of peptide substrates. Inhibition constant (Ki) were calculated from the assayed compound-MMP interactions.
(§2) Human recombinant MMP-1, MMP-2, MMP-9, MMP-13, and MMP-14 were used in this assay. All enzymes were prepared in Assignee's laboratories following usual laboratory procedures. Protocols for the preparation and use of these enzymes are available in the scientific literature. See, e.g., Enzyme Nomenclature (Academic Press, San Diego, Calif., 1992) (and the citations therein). See also, Frije et al., J. Biol. Chem., 26(24), 16766-73 (1994).
The MMP-1 proenzyme was purified from the spent media of MMP-1-transfected HT-1080 cells provided by Dr. Harold Welgus of Washington University (St. Louis, Mo.). The protein was purified on a zinc chelating column.
(§3) All MMPs were activated using 4-aminophenylmercuric acetate (“APMA”, Sigma Chemical, St. Louis, Mo.) or trypsin. MMP-9 also was activated using human recombinant MMP-3 (purified in Assignee's laboratory following standard cloning and purification techniques).
(§4) The following fluorogenic, methoxycoumarin-containing polypeptide substrate (I) was used in the MMP inhibition assays: MCA-ArgProLeuGlyLeuDpaAlaArgGluArgNH2 (I) “MCA” is 7-methoxycoumarin-4-yl acetyl. Substrate (I) was prepared Assignee's laboratory. In the absence of MMP inhibitory activity, the substrate is cleaved at the Gly-Leu peptide bond. This cleavage separates the highly fluorogenic peptide from the 2,4-dinitrophenyl quencher, thus resulting in increase of fluorescent intensity.
(§5) The stock solutions of the assayed compounds and salts were prepared in […] (DMSO). These stock solutions were diluted in Buffer A (100 mM Tris-HCl, 100 mM NaCl, 10 mM CaCl2, 0.05% polyoxyethylene 23 lauryl ether, pH 7.5) to obtain solutions with different compound concentrations, i.e., assay solutions with different concentrations of the assayed […] compound. The experiment controls contained the same amount of Buffer A/DMSO as the assayed sample, but contained none of the tested compound or salt.
(§6) The assays from which the Ki determinations were made were performed as follows. The assayed compound samples were incubated in separate wells of untreated white polystyrene plates (Nunc Nalgene International, Rochester, N.Y.), and analyzed on a Tecan SpectraFlour Plus plate reader. The excitation wavelength was 330 nm, and the emission wavelength—420 nm. All samples (assayed compounds and controls) were incubated in separate plate wells at room temperature for 1 hr in the presence of 4 μM of MMP substrate (I). In the absence of MMP inhibitory activity, substrate (I) was cleaved at the Gly-Leu bond resulting in an increase of relative fluorescence. Inhibition was observed as a reduced rate of this increase in relative fluorescence. […] This protocol is a modification of method by Knight et al., FEBS Lett., 296(3), 263-266 (1992). Apparent inhibitory constants were determined by non-linear regression of reaction velocity as a function of inhibitor and enzyme concentration using Morrison's equation, as described by Kuzmic, Anal. Biochem. 286, 45-50 (2000). Modifications were made in the non-linear regression method to allow a common control reaction rate and effective enzyme concentration to be shared between all dose-response relationships on a given assay plate. Since the substrate concentration was chosen to be at or below the Km, the apparent Ki's from this analysis were reported as Ki's without correction for the influence of substrate.
The above protocols were used to determine Ki constants for the compounds in Examples 2-35 above. All Ki values in Table 1 are given in nM units.

Another assay addresses T2, Human recombinant MMP-13 (Homo sapiens, UniProt P45452).
T2 construct: made in house; host or cells: baculovirus / insect cells
The description is as above. The class given is biochemical. How it is done: as §1, §2
The MMP-13 was obtained as a proenzyme from a full-length cDNA clone using baculovirus, as described by V. A. Luckow, “Insect Cell Expression Technology,” Protein Engineering: Principles and Practice, pp. 183-218 (edited by J. L. Cleland et al., Wiley-Liss, Inc., 1996). The expressed proenzyme was first purified over a heparin agarose column, and then over a chelating zinc chloride column. The proenzyme was then activated by APMA for use in the assay. Further details on baculovirus expression systems may be found in, for example, Luckow et al., J. Virol., 67, 4566-79 (1993). See also, O'Reilly et al, Baculovirus Expression Vectors: A Laboratory Manual (W.H. Freeman and Co., New York, N.Y., 1992). See also, King et al., The Baculovirus Expression System: A Laboratory Guide (Chapman & Hall, London, England, 1992).
as §3, §4, §5
as §6, with “Modifications were made in the non-linear regression method to allow a common control reaction rate and effective enzyme concentration to be shared between all dose-response relationships on a given assay plate. Since the substrate concentration was chosen to be at or below the Km, the apparent Ki's from this analysis were reported as Ki's without correction for the influence of substrate.” left out

The record followed here is patent publication US20060074243A1, “Hydroxamic acid and amide compounds and their use as protease inhibitors” (Pharmacia Corporation, priority 2002, published 2006).

Molecules are shown by their SMILES.

The term Ki denotes a measure of affinity in units of concentration, obtained from inhibition or displacement.

As for `O=C(NO)C1(S(=O)(=O)c2ccc(-c3cnc(C4CCCC4)cn3)cc2)CCOCC1` [Example 162], the figures for the Ki at Human recombinant MMP-1 (Table 2) and on Human recombinant MMP-13 (Table 2) were over 10000 nM and 0.95 nM, respectively.
Take `O=C(NO)C1(S(=O)(=O)c2ccc(-c3ccc(CCCC(F)(F)F)cn3)cc2)CCN(C2CC2)CC1` [Example 51]: the Ki is 9600 nM on Human recombinant MMP-1 (Table 1) and 0.05 nM on Human recombinant MMP-13 (Table 1).
With `CCCCc1ccc(-c2ccc(S(=O)(=O)C3(C(=O)NO)CCN(CC)CC3)cc2)nc1` [Example 140], the inhibition constant Ki on Human recombinant MMP-1 (Table 2) was over 10000 nM; on Human recombinant MMP-13 (Table 2) it was 0.058 nM.
On to `CC(=O)Nc1cnc(-c2ccc(S(=O)(=O)C3(C(=O)NO)CCOCC3)cc2)cn1` [Example 76], for which the figures for the Ki at Human recombinant MMP-1 (Table 2) and at Human recombinant MMP-13 (Table 2) were 9630 nM and 31.7 nM, respectively.
The corresponding values for `O=C(NO)C1(S(=O)(=O)c2ccc(-c3ccc(CCC(F)(F)F)cc3)cc2)CCOCC1` [Example 161] are 3350 nM and 0.07 nM.
For the compound `CN1CCC(C(=O)NO)(S(=O)(=O)c2ccc(-c3ccc(OC(F)(F)C(F)F)cc3)cc2)CC1` [Example 146], the Ki at Human recombinant MMP-1 (Table 2) was 1240 nM; at Human recombinant MMP-13 (Table 2) it was 0.15 nM.
As to `O=C(NO)C1(S(=O)(=O)c2ccc(-c3cnc(CCC4CC4)cn3)cc2)CCOCC1` [Example 49], the Ki at Human recombinant MMP-1 (Table 1) was over 10000 nM; at Human recombinant MMP-13 (Table 1) it was 0.71 nM.
The corresponding values for `O=C(NO)C1(S(=O)(=O)c2ccc(-c3ccc(CCCC(F)(F)F)cc3)cc2)CCN(C2CC2)CC1` [Example 44] are 8690 nM and 0.13 nM.
Take `CCN1CCC(C(=O)NO)(S(=O)(=O)c2ccc(-c3ccc(-c4csc(C)n4)cc3)cc2)CC1` [Example 155]: the inhibition constant Ki at Human recombinant MMP-1 (Table 2) was 3860 nM; at Human recombinant MMP-13 (Table 2) it was 0.17 nM.
On to `O=C(NO)C1(S(=O)(=O)c2ccc(-c3ccc(CCCC(F)(F)F)cn3)cc2)CCOCC1` [Example 69], for which the inhibition constant Ki on Human recombinant MMP-1 (Table 1) was found to be 3530 nM; on Human recombinant MMP-13 (Table 1), 0.082 nM.
As for `COCCN1CCC(C(=O)NO)(S(=O)(=O)c2ccc(-c3ccc(CCC(C)(F)F)cc3)cc2)CC1` [Example 63], the Ki was determined as 1750 nM at Human recombinant MMP-1 (Table 1) and 0.01 nM on Human recombinant MMP-13 (Table 1).
On to `COCC#Cc1cnc(-c2ccc(S(=O)(=O)C3(C(=O)NO)CCOCC3)cc2)cn1` [Example 164], for which the inhibition constant Ki at Human recombinant MMP-1 (Table 2) is 2490 nM; on Human recombinant MMP-13 (Table 2), 0.09 nM.
Consider `O=C(NO)C1(S(=O)(=O)c2ccc(-c3cnc(N4CCCC4)cn3)cc2)CCOCC1` [Example 138], for which the inhibition constant (Ki) is over 10000 nM at Human recombinant MMP-1 (Table 2) and 0.571 nM at Human recombinant MMP-13 (Table 2).
As for `O=C(NO)C1(S(=O)(=O)c2ccc(-c3ccc(CCC(F)(F)C(F)(F)F)cc3)cc2)CCOCC1` [Example 41], the inhibition constant (Ki) at Human recombinant MMP-1 (Table 1) worked out at 5110 nM; on Human recombinant MMP-13 (Table 1) it was 0.224 nM.
Regarding `CCN1CCC(C(=O)NO)(S(=O)(=O)c2ccc(-c3ccc(CCCC(F)(F)F)cn3)cc2)CC1` [Example 53], the Ki at Human recombinant MMP-1 (Table 1) is over 10000 nM; at Human recombinant MMP-13 (Table 1), 0.06 nM.
For `CCCCCc1ccc(-c2ccc(S(=O)(=O)C3(C(=O)NO)CCOCC3)cc2)cc1` [Example 75], the inhibition constant (Ki) on Human recombinant MMP-1 (Table 2) worked out at 3970 nM; at Human recombinant MMP-13 (Table 2), 0.299 nM.
Consider `COCCN1CCC(C(=O)NO)(S(=O)(=O)c2ccc(-c3ccc(CCC(F)(F)C(F)(F)F)cc3)cc2)CC1` [Example 46], for which the inhibition constant (Ki) is over 10000 nM at Human recombinant MMP-1 (Table 1) and 0.11 nM on Human recombinant MMP-13 (Table 1).
Take `O=C(NO)C1(S(=O)(=O)c2ccc(-c3cnc(CCC(F)(F)C(F)(F)F)cn3)cc2)CCOCC1` [Example 55]: the inhibitory constant (Ki) on Human recombinant MMP-1 (Table 1) is over 10000 nM; on Human recombinant MMP-13 (Table 1), 0.222 nM.
Regarding `CCCCOc1cnc(-c2ccc(S(=O)(=O)C3(C(=O)NO)CCOCC3)cc2)cn1` [Example 73], the figures for the inhibition constant Ki at Human recombinant MMP-1 (Table 2) and at Human recombinant MMP-13 (Table 2) were 1740 nM and 0.028 nM, respectively.
For the compound `O=C(NO)C1(S(=O)(=O)c2ccc(-c3ccc(OC(F)(F)C(F)F)cc3)cc2)CCN(C2CC2)CC1` [Example 40], the inhibitory constant (Ki) on Human recombinant MMP-1 (Table 1) is 508 nM; at Human recombinant MMP-13 (Table 1), 0.066 nM.
With `CC(C)(C)CCNc1cnc(-c2ccc(S(=O)(=O)C3(C(=O)NO)CCOCC3)cc2)cn1` [Example 130], the inhibitory constant (Ki) on Human recombinant MMP-1 (Table 2) was over 1250 nM; at Human recombinant MMP-13 (Table 2), 1.27 nM.
On to `CCOc1ccc(-c2ccc(S(=O)(=O)C3(C(=O)NO)CCOCC3)cc2)cc1` [Example 163], for which the Ki at Human recombinant MMP-1 (Table 2) is 327 nM; at Human recombinant MMP-13 (Table 2), 0.011 nM.
